Reference: patent publication US10179797B2, “Phosphinic peptide derivatives for use as MMP-12 inhibitors” (DSM IP ASSETS B.V., priority 2015, dated 2019)

Key:
MMP-12 [1] = target: T1, MMP-12 (Homo sapiens, UniProt P39900); assay: MMP-12 Fluorometric Drug Discovery Kit inhibition assay; assay type: biochemical; parameters: purchased Enzo Life Sciences Inc., Farmingdale, N.Y., USA; conditions: read-out: % Inhibition after 20 min
From the text: The MMP-12 inhibitor activity was quantified by fluorometric analysis using the MMP-12 Fluorometric Drug Discovery Kit (Enzo Life Sciences Inc., Farmingdale, N.Y., USA) according to the manufacturers' instructions.
Target sequence in this assay (P39900 106-263 limits assumed): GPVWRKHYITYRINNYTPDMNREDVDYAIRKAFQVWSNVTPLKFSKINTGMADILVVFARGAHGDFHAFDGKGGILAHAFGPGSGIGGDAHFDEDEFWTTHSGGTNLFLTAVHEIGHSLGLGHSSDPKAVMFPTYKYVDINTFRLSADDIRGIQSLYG

Human skin = assay: Total dermal elastin after UV-irradiation of cultured human skin samples; conditions: concentration 100 [μm]; for Increase vs. untreated-UV: day 6, (Dermal elastin sample − Dermal Elastin UV)/Dermal Elastin UV * 100%; for Dermal elastin: topical twice a day, daily 45 J/cm^2 UVA, day 6, papillary dermis, non-UV treated sample = 100%
Method: Human skin from abdominal plastic surgery classified as “Intermediate” (ITA° angle=53°) has been used. The skin samples were cut in pieces of approx. 8×3 mm (ø×thickness) and cultured up to day 6 in an air-liquid interface in a perforated ring of stainless steel in contact with a culture medium (modified Williams'E medium), the culture medium was renewed every three days. Eight skin specimens were used for each treatment. Each test sample (4 μl) was topically applied twice a day, immediately after UV irradiation and renewed 4 hours later top of each piece after gentle cleaning of the surface with a cotton pad followed by covering with a 6 ømm delivery membrane, which procedure was repeated daily. The samples were irradiated daily with 800% of the Biological Effective Dose of daylight (BED; Del Bino et al, Pigment Cell research, 19, 2006) equal to a dose of 45 J/cm^2 UVA using an adopted BIO-SUN system (Vilber Lourmat). At day 6 twelve skin sections were immunostained with mouse monoclonal anti-Elastin antibody (Sigma cat#E4013). The papillary dermis is selected for the analysis. The evaluation has been performed by estimating both color intensity and distribution with IMAGE J (NIH) analysis software Two slides of each skin sample have been processed by image acquisition and related analysis (i.e. 12 images for each treatment). The score of the dermal Elastin of the non-UV treated sample was set to 100%.

MMP-12 [2] = target: T1, MMP-12; assay: Inhibition of MMP-12 degradation of elastin fibers produced by human dermal fibroblasts; assay type: cell-based; conditions: MMP-12 200 U/ml, 2 hrs at 37° C.
Method: Human dermal fibroblasts were pre-cultured in DMEM, 10% FCS, 1% P/S for 48 hrs before starving them in DMEM, 0.2% FCS, 1% P/S for 24 hrs. To induce elastin fiber production TGFb1 (10 ng/ml) was added and incubated for 5 days. After incubation with TGFb1, medium was carefully discarded and cells were washed with assay buffer (HBSS, […] HEPES). In the meantime MMP-12 (200 U/ml) and compounds were mixed in assay buffer and allowed to interact for 30 min. This mixture was then added to the cells and incubated for 2 hrs at 37° C.
Cells were then fixed with ice-cold methanol for 5 min and rehydrated by PBS. Unspecific sites were blocked with 1% BSA in PBS for 1 h at room temperature. Elastin fibers were detected using a primary antibody against elastin and the first antibody was detected with AlexaFluor 488 conjugated secondary antibody. Finally, nuclei were counterstained with DAPI. Stained cells were analyzed with the Thermo Scientific ArrayScan XTI Live High Content Platform. 49 pictures per well were acquired with a 20× objective and as readout we used the area covered by the elastin fibers. % of inhibition of elastin fiber degradation was calculated the following way: % protection of elastin fiber network degradation=100−[(max area−min area)/(max area inhibitor area)*100] in which max area=area covered by elastin fibers of untreated control cells min area=area covered by elastin fibers of MMP12 treated cells inhibitor area=area covered by elastin fibers of MMP12 and inhibitor treated cells.
Target sequence in this assay (P39900 106-470, species assumed): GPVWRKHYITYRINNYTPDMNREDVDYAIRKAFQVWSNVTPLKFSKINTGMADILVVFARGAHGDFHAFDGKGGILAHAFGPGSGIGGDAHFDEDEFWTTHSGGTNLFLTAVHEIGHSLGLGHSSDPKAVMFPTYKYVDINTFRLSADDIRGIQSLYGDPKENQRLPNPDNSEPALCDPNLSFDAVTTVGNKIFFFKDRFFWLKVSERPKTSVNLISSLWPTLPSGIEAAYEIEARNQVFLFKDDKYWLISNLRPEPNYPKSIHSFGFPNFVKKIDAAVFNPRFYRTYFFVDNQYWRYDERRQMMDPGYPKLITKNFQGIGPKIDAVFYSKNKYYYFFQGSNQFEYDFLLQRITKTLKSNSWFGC

Compound	inhibition at 0.5 µM (MMP-12 [1])	inhibition at 1 µM (MMP-12 [1])	inhibition at 10 µM (MMP-12 [1])	further results
NC(=O)C[C@H](NC(=O)[C@@H](Cc1ccc(-c2ccccc2)cc1)CP(=O)(O)CCc1ccccc1)C(=O)O [(I)-I]	84%	89%	90%	–
COC(=O)[C@H](CCNC(=O)OC(C)(C)C)NC(=O)[C@@H](Cc1ccc(-c2ccccc2)cc1)CP(=O)(O)CCc1ccccc1 [(I)-D]	85%	90%	91%	–
O=C(N[C@@H](Cc1c[nH]c2ccccc12)C(=O)O)[C@@H](Cc1ccc(-c2ccccc2)cc1)CP(=O)(O)CCc1ccccc1 [(I)-K]	69%	79%	90%	–
C[C@H](NC(=O)[C@H](Cc1ccc(-c2ccccc2)cc1)CP(=O)(O)CCc1ccccc1)C(=O)O [(I)-J]	93%	94%	90%	–
CC(NC(=O)C(Cc1ccc(-c2ccccc2)cc1)CP(=O)(O)CCc1ccccc1)C(=O)O (stereo not drawn) [(I)-m, (3-([1,1′-biphenyl]-4-yl)-2-((hydroxy(phenethyl)phosphoryl)methyl)propanoyl)alanine]	–	–	–	Increase vs. untreated-UV (Human skin): +30%; Dermal elastin (Human skin): 106%
CC[C@@H](C)[C@H](NC(=O)[C@@H](Cc1ccc(-c2ccccc2)cc1)CP(=O)(O)CCc1ccccc1)C(=O)OC(C)(C)C [(I)-T, ((R)-2-([1,1′-biphenyl]-4-ylmethyl)-3-(((2S,3R)-1-(tert-butoxy)-3-methyl-1-oxopentan-2-yl)amino)-3-oxopropyl)(phenethyl)phosphinic acid]	–	–	75%	–
O=C(N[C@@H](Cc1c[nH]c2ccccc12)C(=O)O)[C@H](Cc1ccc(-c2ccccc2)cc1)CP(=O)(O)CCc1ccccc1 [(I)-C]	93%	94%	92%	–
CCCCC(NC(=O)C(Cc1ccc(-c2ccccc2)cc1)CP(=O)(O)CCc1ccccc1)C(=O)O (stereo not drawn) [(I)-k, 2-(3-([1,1′-biphenyl]-4-yl)-2-((hydroxy(phenethyl)phosphoryl)methyl)propanamido)hexanoic acid]	–	–	–	Increase vs. untreated-UV (Human skin): +54%; Dermal elastin (Human skin): 125%
CCC(C)[C@H](NC(=O)[C@H](Cc1ccc(-c2ccccc2)cc1)CP(=O)(O)CCc1ccccc1)C(=O)O (stereo partly drawn) [(I)-B]	94%	94%	92%	–
O=C(N[C@@H](Cc1ccc2ccccc2c1)C(=O)O)[C@@H](Cc1ccc(-c2ccccc2)cc1)CP(=O)(O)CCc1ccccc1 [(I)-G]	78%	85%	91%	–
O=C(O)CCCNC(=O)C(Cc1ccc(-c2ccccc2)cc1)CP(=O)(O)CCc1ccccc1 (stereo not drawn) [(I)-L]	75%	82%	90%	–
CC[C@@H](C)[C@H](NC(=O)[C@H](Cc1ccc(-c2ccccc2)cc1)CP(=O)(O)CCc1ccccc1)C(=O)OC(C)(C)C [(I)-U, ((S)-2-([1,1′-biphenyl]-4-ylmethyl)-3-(((2S,3R)-1-(tert-butoxy)-3-methyl-1-oxopentan-2-yl)amino)-3-oxopropyl)(phenethyl)phosphinic acid]	–	–	72%	–
O=C(NC(Cc1c[nH]c2ccccc12)C(=O)O)C(Cc1ccc(-c2ccccc2)cc1)CP(=O)(O)CCc1ccccc1.O=C(O)C(F)(F)F (stereo not drawn) [(I)-c, (3-([1,1′-biphenyl]-4-yl)-2-((hydroxy(phenethyl)phosphoryl)methyl)propanoyl)tryptophan compound with 2,2,2-trifluoroacetic acid (1:1)]	–	–	–	Increase vs. untreated-UV (Human skin): +52%; Dermal elastin (Human skin): 123%
CC(C)C[C@H](NC(=O)[C@H](Cc1ccc(-c2ccccc2)cc1)CP(=O)(O)CCc1ccccc1)C(=O)OC(C)(C)C [(I)-F]	73%	82%	91%	–
COC(=O)[C@H](Cc1csc2ccccc12)NC(=O)[C@H](Cc1ccc(-c2ccccc2)cc1)CP(=O)(O)CCc1ccccc1 [(I)-A]	75%	82%	92%	–
CCC(C)C(NC(=O)C(Cc1ccc(-c2ccccc2)cc1)CP(=O)(O)CCc1ccccc1)C(=O)O (stereo not drawn) [(I)-e, 2-(3-([1,1′-biphenyl]-4-yl)-2-((hydroxy(phenethyl)phosphoryl)methyl)propanamido)-3-methylpentanoic acid]	–	–	–	% protection of elastin fiber network degradation (MMP-12 [2]; 0.05 μM): 12.44%; % protection of elastin fiber network degradation (MMP-12 [2]; 1 μM): 68.17%; % protection of elastin fiber network degradation (MMP-12 [2]; 20 μM): 83.73%
CCCC[C@H](NC(=O)[C@H](Cc1ccc(-c2ccccc2)cc1)CP(=O)(O)CCc1ccccc1)C(=O)OC [(I)-H]	83%	89%	91%	–

Now from value to molecule, other results behind:

inhibition at 0.5 µM (MMP-12 [1])	inhibition at 1 µM (MMP-12 [1])	inhibition at 10 µM (MMP-12 [1])	Compound	further results
–	–	88%	NC(=O)C[C@H](NC(=O)[C@H](Cc1ccc(-c2ccccc2)cc1)CP(=O)(O)CCc1ccccc1)C(=O)O [(I)-O]	–
–	–	82%	CC(C)(C)OC(=O)[C@H](Cc1cn(C(=O)OC(C)(C)C)c2ccccc12)NC(=O)C(Cc1ccc(-c2ccccc2)cc1)CP(=O)(O)CCc1ccccc1 (stereo partly drawn) [(I)-R]	–
–	–	82%	COC(=O)[C@@H](NC(=O)[C@H](Cc1ccc(-c2ccccc2)cc1)CP(=O)(O)CCc1ccccc1)C1CCCCC1 [(I)-S, ((S)-2-([1,1′-biphenyl]-4-ylmethyl)-3-(((S)-1-cyclohexyl-2-methoxy-2-oxoethyl)amino)-3-oxopropyl)(phenethyl)phosphinic acid]	–
52%	64%	89%	O=C(N[C@@H](Cc1csc2ccccc12)C(=O)O)[C@@H](Cc1ccc(-c2ccccc2)cc1)CP(=O)(O)CCc1ccccc1 [(I)-M]	–
–	–	83%	O=C(N[C@@H](Cc1ccc2ccccc2c1)C(=O)OCc1ccccc1)[C@H](Cc1ccc(-c2ccccc2)cc1)CP(=O)(O)CCc1ccccc1 [(I)-Q]	–
–	–	61%	COC(=O)C(C)(C)NC(=O)C(Cc1ccc(-c2ccccc2)cc1)CP(=O)(O)CCc1ccccc1 (stereo not drawn) [(I)-V, (2-([1,1′-biphenyl]-4-ylmethyl)-3-((1-methoxy-2-methyl-1-oxopropan-2-yl)amino)-3-oxopropyl)(phenethyl)phosphinic acid]	–
–	–	88%	CC[C@H](NC(=O)[C@H](Cc1ccc(-c2ccccc2)cc1)CP(=O)(O)CCc1ccccc1)C(=O)OC(C)(C)C [(I)-P]	–
–	–	89%	CCCC[C@H](NC(=O)[C@@H](Cc1ccc(-c2ccccc2)cc1)CP(=O)(O)CCc1ccccc1)C(=O)O [(I)-N]	–
